# From paper PMC2330087, “Mechanistic Insights into a Novel Exporter-Importer System of Mycobacterium tuberculosis Unravel Its Role in Trafficking of Iron” (PLoS ONE, 2008)
# Target: T1, rIrtA (Rv1348) in LP-48 liposomes (Mycobacterium tuberculosis, UniProt P9WQJ9)
# T1 construct: gene irtA
# T1 sequence (P9WQJ9 whole entry): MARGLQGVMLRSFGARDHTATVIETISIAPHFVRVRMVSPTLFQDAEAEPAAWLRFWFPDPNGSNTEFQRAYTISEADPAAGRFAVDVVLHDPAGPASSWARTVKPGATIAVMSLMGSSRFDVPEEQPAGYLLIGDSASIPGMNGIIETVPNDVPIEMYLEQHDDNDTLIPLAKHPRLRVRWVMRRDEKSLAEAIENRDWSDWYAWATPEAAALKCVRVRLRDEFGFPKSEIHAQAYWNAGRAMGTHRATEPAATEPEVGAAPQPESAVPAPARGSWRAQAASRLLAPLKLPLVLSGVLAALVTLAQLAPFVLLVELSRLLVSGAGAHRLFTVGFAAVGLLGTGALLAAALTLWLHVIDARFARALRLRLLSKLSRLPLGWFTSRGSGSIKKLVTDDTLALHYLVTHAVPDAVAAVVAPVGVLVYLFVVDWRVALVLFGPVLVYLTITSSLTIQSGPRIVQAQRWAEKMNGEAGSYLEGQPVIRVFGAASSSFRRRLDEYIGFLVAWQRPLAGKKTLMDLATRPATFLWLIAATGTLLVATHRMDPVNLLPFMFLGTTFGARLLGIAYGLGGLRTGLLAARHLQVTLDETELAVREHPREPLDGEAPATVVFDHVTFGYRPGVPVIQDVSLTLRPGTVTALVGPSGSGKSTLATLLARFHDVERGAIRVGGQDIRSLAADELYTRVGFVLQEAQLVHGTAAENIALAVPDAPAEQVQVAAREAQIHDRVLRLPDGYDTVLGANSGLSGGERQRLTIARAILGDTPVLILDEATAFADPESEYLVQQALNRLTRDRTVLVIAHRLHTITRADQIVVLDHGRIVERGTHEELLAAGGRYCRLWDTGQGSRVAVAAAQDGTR
compound,measurement,value
Nc1ncnc2c1ncn2[C@@H]1O[C@H](COP(=O)(O)OP(=O)(O)OP(=O)(O)O)[C@@H](O)[C@H]1O [ATP],inorganic phosphate release in proteoliposomes,the ATP hydrolysis by rIrtA was not seen in the absence of cMyco
